Measured values as given in patent US20250243176A1, “(S)-1-(1-ACRYLOYLPIPERIDIN-3-YL)-2-FLUORO-5,6,7,8,9,10-HEXAHYDROCYCLO HEPTA[B]INDOLE-4-CARBOXAMIDE, AND RELATED CRYSTALLINE FORMS, COMPOSITIONS, AND METHODS THEREOF” (GB005, Inc., priority 2021, published 2025).
≈ marks a conversion by molar mass, not a printed value. Entries after “also recorded” stand apart in the source; their conditions may differ.

What was measured:
Format in all cases: physicochemical
[1] = Dynamic vapor sorption (DVS)
Method: Moisture sorption/desorption data was collected on a Vsorp Dynamic Moisture Sorption Analyzer (ProUmid GmbH & Co. KG, Germany). The sample was placed into a tared sample chamber and automatically weighed. • Sample temperature 25° C. • Cycle: Full cycle • Adsorption 0, 10, 20, 30, 40, 50, 60, 70, 80, 90 • Desorption 80, 70, 60, 50, 40, 30, 20, 10, 0

[2] = Competition slurry / inter-conversion study of Form I and Form III; conditions: competition slurry of Form I and Form III in water and heptane; RT to 80° C.
Method: Equal amounts of Form I and Form III were mixed in water and heptane to form slurries and stirred at RT (˜25° C.) or 80° C.

[3] = Solid-state stability of Form III
Method: The solid-state stability of Compound 1, Form III was examined in duplicate (sample 1 and sample 2) for 7 days under the conditions below and the resultant solids analyzed by XRPD: • 40° C./75% relative humidity (open); and • 60° C. (capped).
The solid-state stability of Compound 1, Form III was also examined for 3 months under the conditions below: • 40° C./75% relative humidity; and • 25° C./60% relative humidity

[4] = Grinding (mechanical treatment) of Form III
Method: Polymorph screening of Compound 1 was conducted using various crystallization methods, including slurry, cooling and evaporative crystallization, anti-solvent precipitation, thermal and mechanical treatment.

[5] = Solubility testing in bio-relevant media (Form III); conditions: 37° C.; for Solubility / solubility at 1 h: 1 h; for Solubility / solubility at 4 h: 4 h; for Solubility / solubility at 24 h: 24 h; for solubility at 1 h / solubility at 4 h / solubility at 24 h: thermodynamic from solid
Method: FaSSIF Buffer Solution: 6 mL 0.2 M NaOH, 388.7 mg of NaH2PO4, and 608.2 mg of NaCl were dissolved and diluted to 100 mL with water. The pH was 6.51. FaSSIF Media: 34.56 mg of SIF powder was dissolved in 15 mL of FaSSIF buffer solution. The solution was stirred and equilibrated at ambient temperature with light protection for 2 hours. SIF powder was purchased from Biorelevant.com.
FeSSIF Buffer Solution: 408.4 mg of NaOH, 868.5 mg of acetic acid, and 1.1802 g of NaCl were dissolved and diluted to 100 mL with water. The pH of the solution was 4.98. FeSSIF Media: 168.42 mg of SIF powder was dissolved in 15 mL of FeSSIF buffer solution. The solution was protected from light.
FaSSGF Buffer Solution: 222 mg of NaCl were dissolved with water, then added 1N HCl adjust the pH to 1.6. […] The solution was stirred and equilibrated at ambient temperature with light protection for 2 hours.
FaSSIF-V2 Buffer Solution: 154.4 mg NaOH, 246.7 mg of maleic acid and 445.6 mg of NaCl were dissolved and diluted to 100 mL with water. The pH was 6.51. FaSSIF-V2 Media: 28.64 mg of FaSSIF-V2 powder (purchased from Biorelevant.com) was dissolved in 8 mL of FaSSIF-V2 buffer solution. The solution was stirred and equilibrated at ambient temperature with light protection for 2 hours.
FeSSIF-V2 Buffer Solution: […] of NaOH, 710 mg of maleic acid, and 814.4 mg of NaCl were dissolved and diluted to 100 mL with water. The pH of the solution was 5.8. FeSSIF-V2 Media: 156.16 mg of FeSSIF-V2 powder was dissolved in 8 mL of FeSSIF-V2 buffer solution. The solution was protected from light.
Samples were prepared in duplicate for each medium. The suspensions were shaken at 37° C. for up to 24 hours.

[6] = Approximate solubility, solvent addition method, visual assessment
Method: The approximate solubility of the initial solid was determined using a solvent addition method via visual assessment of samples.
Values are rounded to nearest whole number and reported as “<” if dissolution was not observed, and as “>” if dissolution occurred after addition of first aliquot.

For `C=CC(=O)N1CCC[C@@H](c2c(F)cc(C(N)=O)c3[nH]c4c(c23)CCCCC4)C1` [Form III, (S)-1-(1-acryloylpiperidin-3-yl)-2-fluoro-5,6,7,8,9,10-hexahydrocyclohepta[b]indole-4-carboxamide], the hygroscopicity ([1]; DVS) was “non-hygroscopic”, the “crystal Form after DVS testing” value ([1]; XRPD before and after DVS) was “remained unchanged” and the “weight gain (DVS)” value ([1]; up to 90% RH, 25° C.) was less than 0.5%. For the same molecule, the “relative stability of crystal forms” value [2] was “most stable Form; also recorded: more stable than Form I”, the solid-state stability ([3]; 3 months, 40° C./75% relative humidity and 25° C./60% relative humidity) was “stable” and the solid-state stability ([3]; 7 days, 40° C./75% relative humidity (open) and 60° C. (capped)) was “chemically and physically stable”. For the same molecule, the “crystal form after grinding” value [4] was “remained unchanged”, the crystallinity after grinding [4] was “decreased slightly” and the Solubility ([5]; FaSSGF, pH 1.6, pH at 24 h 1.7) was “<LOQ”. For the same molecule, the Solubility ([5]; pH 5.8 Buffer, pH at 24 h 5.8) was “<LOQ”, the Solubility ([5]; pH 6.5 Buffer, pH at 24 h 6.6) was “<LOQ” and the solubility at 1 h ([5]; FaSSIF, pH 6.5) was 6 µg/mL (≈ 15.6 µM). The solubility at 4 h ([5]; FaSSIF, pH 6.5) was 5 µg/mL (≈ 13 µM), the solubility at 24 h ([5]; FaSSIF, pH 6.5, pH at 24 h 6.5) was 7 µg/mL (≈ 18.3 µM) and the solubility at 1 h ([5]; FaSSIF-V2, pH 6.5) was 4 µg/mL (≈ 10.4 µM). The solubility at 4 h ([5]; FaSSIF-V2, pH 6.5) was 4 µg/mL (≈ 10.4 µM), the solubility at 24 h ([5]; FaSSIF-V2, pH 6.5, pH at 24 h 6.6) was 4 µg/mL (≈ 10.4 µM) and the solubility at 1 h ([5]; FeSSIF, pH 5.0) was 73 µg/mL (≈ 190 µM). For the same molecule, the solubility at 4 h ([5]; FeSSIF, pH 5.0) was 75 µg/mL (≈ 196 µM), the solubility at 24 h ([5]; FeSSIF, pH 5.0, pH at 24 h 5.0) was 90 µg/mL (≈ 235 µM) and the solubility at 1 h ([5]; FeSSIF-V2, pH 5.8) was 120 µg/mL (≈ 313 µM). For the same molecule, the solubility at 4 h ([5]; FeSSIF-V2, pH 5.8) was 200 µg/mL (≈ 522 µM) and the solubility at 24 h ([5]; FeSSIF-V2, pH 5.8, pH at 24 h 5.9) was 180 µg/mL (≈ 469 µM).

`C=CC(=O)N1CCC[C@@H](c2c(F)cc(C(N)=O)c3[nH]c4c(c23)CCCCC4)C1` [starting material, (S)-1-(1-acryloylpiperidin-3-yl)-2-fluoro-5,6,7,8,9,10-hexahydrocyclohepta[b]indole-4-carboxamide] gave a Solubility ([6]; 1,4-dioxane) of roughly 20000 µg/mL (≈ 52200 µM), a Solubility ([6]; 1,4-dioxane, organic solvent or mixture, thermodynamic from solid, 1,4-dioxane, read-out: Solubility) greater than 20000 µg/mL and a Solubility ([6]; 2-butanone (MEK), organic solvent or mixture, thermodynamic from solid, 2-Butanone (MEK), read-out: Solubility) of roughly 8300 µg/mL (≈ 21600 µM). For the same molecule, the Solubility ([6]; 2-propanol (IPA), organic solvent or mixture, thermodynamic from solid, 2-Propanol (IPA), read-out: Solubility) was roughly 4200 µg/mL (≈ 11000 µM), the Solubility ([6]; Dimethyl sulfoxide (DMSO)) was greater than 250000 µg/mL and the Solubility ([6]; Tetrahydrofuran (THF)) was roughly 25000 µg/mL (≈ 65200 µM). It also gave a Solubility ([6]; Water) of less than 600 µg/mL, a Solubility ([6]; acetone, organic solvent or mixture, thermodynamic from solid, Acetone, read-out: Solubility) of roughly 7100 µg/mL (≈ 18500 µM) and a Solubility ([6]; acetonitrile, organic solvent or mixture, thermodynamic from solid, Acetonitrile, read-out: Solubility) of roughly 1700 µg/mL (≈ 4430 µM). It also gave a Solubility ([6]; dimethyl sulfoxide (DMSO), organic solvent or mixture, thermodynamic from solid, Dimethyl sulfoxide (DMSO), read-out: Solubility) greater than 250000 µg/mL, a Solubility ([6]; ethanol, organic solvent or mixture, thermodynamic from solid, Ethanol, read-out: Solubility) of roughly 5000 µg/mL (≈ 13000 µM) and a Solubility ([6]; ethyl acetate, organic solvent or mixture, thermodynamic from solid, Ethyl acetate, read-out: Solubility) of roughly 2000 µg/mL (≈ 5220 µM). It also gave a Solubility ([6]; isopropyl acetate, organic solvent or mixture, thermodynamic from solid, Isopropyl acetate, read-out: Solubility) of roughly 1500 µg/mL (≈ 3910 µM), a Solubility ([6]; methanol, organic solvent or mixture, thermodynamic from solid, Methanol, read-out: Solubility) of roughly 7100 µg/mL (≈ 18500 µM) and a Solubility ([6]; n-Heptane) of less than 600 µg/mL. It also gave a Solubility ([6]; n-butanol (NBA), organic solvent or mixture, thermodynamic from solid, n-Butanol (NBA), read-out: Solubility) of roughly 2300 µg/mL (≈ 6000 µM), a Solubility ([6]; n-heptane, organic solvent or mixture, thermodynamic from solid, n-Heptane, read-out: Solubility) of less than 600 µg/mL and a Solubility ([6]; tetrahydrofuran (THF), organic solvent or mixture, thermodynamic from solid, Tetrahydrofuran (THF), read-out: Solubility) greater than 20000 µg/mL. The Solubility ([6]; toluene, organic solvent or mixture, thermodynamic from solid, Toluene, read-out: Solubility) was roughly 1300 µg/mL (≈ 3390 µM) and the Solubility ([6]; water, thermodynamic from solid, Water, read-out: Solubility) was less than 600 µg/mL.
